ChEMBL document CHEMBL2074518, “Multiple systems for the biliary excretion of organic anions in rats: liquiritigenin conjugates as model compounds” (J Pharmacol Exp Ther, 1994)

Tests used:
[1] = target: T1, ATP-binding cassette sub-family C member 2 (Rattus norvegicus, UniProt Q63120); experiment: TP_TRANSPORTER: biliary excretion in EHBR rat; format: functional, organism-based, Bile; details: in vivo
[2] = target: T1, ATP-binding cassette sub-family C member 2; experiment: TP_TRANSPORTER: biliary excretion in SD rat; format: functional, organism-based, Sprague-Dawley, Bile; details: in vivo

T1 sequence (Q63120 whole entry): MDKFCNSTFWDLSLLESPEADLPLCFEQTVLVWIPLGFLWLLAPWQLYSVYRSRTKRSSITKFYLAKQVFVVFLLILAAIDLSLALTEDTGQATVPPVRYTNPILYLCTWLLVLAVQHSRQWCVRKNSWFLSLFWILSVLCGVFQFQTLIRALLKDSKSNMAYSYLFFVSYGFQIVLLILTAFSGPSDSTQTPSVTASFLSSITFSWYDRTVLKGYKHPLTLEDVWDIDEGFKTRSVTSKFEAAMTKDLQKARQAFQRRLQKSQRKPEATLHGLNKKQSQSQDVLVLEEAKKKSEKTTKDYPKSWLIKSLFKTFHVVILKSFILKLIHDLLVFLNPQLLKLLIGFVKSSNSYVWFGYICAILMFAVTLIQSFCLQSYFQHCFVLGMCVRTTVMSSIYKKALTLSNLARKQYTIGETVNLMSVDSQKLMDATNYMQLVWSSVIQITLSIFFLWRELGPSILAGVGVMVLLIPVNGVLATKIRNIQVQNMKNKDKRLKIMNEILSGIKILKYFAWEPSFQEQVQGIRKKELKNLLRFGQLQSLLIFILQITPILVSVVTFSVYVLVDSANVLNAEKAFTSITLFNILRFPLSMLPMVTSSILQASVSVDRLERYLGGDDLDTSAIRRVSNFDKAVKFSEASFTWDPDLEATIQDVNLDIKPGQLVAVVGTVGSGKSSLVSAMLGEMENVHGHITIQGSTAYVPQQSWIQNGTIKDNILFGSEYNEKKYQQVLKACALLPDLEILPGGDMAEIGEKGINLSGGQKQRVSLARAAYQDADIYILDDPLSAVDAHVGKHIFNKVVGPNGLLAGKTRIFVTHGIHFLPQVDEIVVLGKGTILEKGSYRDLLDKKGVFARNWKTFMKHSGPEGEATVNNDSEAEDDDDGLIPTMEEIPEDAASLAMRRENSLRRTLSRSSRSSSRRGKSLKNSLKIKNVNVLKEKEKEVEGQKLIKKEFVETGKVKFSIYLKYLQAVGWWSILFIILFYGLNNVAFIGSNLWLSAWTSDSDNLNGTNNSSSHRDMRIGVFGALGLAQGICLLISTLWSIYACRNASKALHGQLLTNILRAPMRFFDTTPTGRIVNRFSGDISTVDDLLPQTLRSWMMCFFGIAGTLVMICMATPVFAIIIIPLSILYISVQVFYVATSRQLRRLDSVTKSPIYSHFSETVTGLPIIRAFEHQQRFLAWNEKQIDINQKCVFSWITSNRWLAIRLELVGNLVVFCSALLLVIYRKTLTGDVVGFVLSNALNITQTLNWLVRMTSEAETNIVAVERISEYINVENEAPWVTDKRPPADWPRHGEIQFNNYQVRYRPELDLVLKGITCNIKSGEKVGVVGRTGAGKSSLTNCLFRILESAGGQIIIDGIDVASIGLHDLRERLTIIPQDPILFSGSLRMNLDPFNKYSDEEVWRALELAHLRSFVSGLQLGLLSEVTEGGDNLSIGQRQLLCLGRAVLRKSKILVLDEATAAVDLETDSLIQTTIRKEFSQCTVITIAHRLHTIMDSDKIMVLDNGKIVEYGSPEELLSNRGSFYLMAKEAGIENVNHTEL

In the case of `O=C1CC(c2ccc(O[C@@H]3O[C@H](C(=O)O)[C@@H](O)[C@H](O)[C@H]3O)cc2)Oc2cc(O)ccc21` (some centres not stated) [LIQUIRTIGENIN GLUCURONIDE], the Activity [1] was “substrate [+]” and the Activity [2] was “substrate [+]”.
